Assay results taken from patent US20030069285A1 (Recordati Ireland Limited, priority 2001, published 2003).

Legend:
[1] = Thermogravimetric analysis (TG and TGFTIR); assay type: physicochemical; settings: heated in nitrogen stream at 10° C./min; only CO2 is present
Method: Each sample weighing 2 to 5 mg was placed in an aluminum crucible of an apparatus PERKIN ELMER TGS-2 Thermogravimetric System (Perkin-Elmer International, Inc., Rotkreuz, Switzerland) and heated in nitrogen stream at a rate of 10° C./min. The thermogravimetric analysis together with an IR analysis in Fourier transform was carried out according to the following operating modes. Each sample weighing 2 to 5 mg was placed in an aluminum crucible of an apparatus Netzsch Thermomicrobalance TG209 (Netzsch Gerätebau, Seib, Germany) coupled with a spectrometer in Fourier transform BRUKER FTIR Vector 22 (Spectrospin, Fällanden, Switzerland) and heated in nitrogen stream at a rate of 10° C./min.

isolated rat aorta = settings: in vitro; even after the drug has been removed from the environment of the aortic tissue for 6 hours; cited from earlier work

| Compound | temperature above which degradation was observed [1] | isolated rat aorta response to high K+ (isolated rat aorta) |
| --- | --- | --- |
| lercanidipine hydrochloride-terbutyl methyl ether | above 180 °C | – |
| COC(=O)C1=C(C)NC(C)=C(C(=O)OC(C)(C)CN(C)CCC(c2ccccc2)c2ccccc2)C1c1cccc([N+](=O)[O-])c1 (centres unmarked) [Lercanidipine, methyl 1,1,N-trimethyl-N-(3,3-diphenylpropyl)-2-aminoethyl 1,4-dihydro-2,6-dimethyl-4-(3-nitrophenyl)pyridine-3,5-dicarboxylate] | – | attenuated |
